We go through three molecules from EP0350948B1, “Porphyrin derivatives” (TOYOHAKKA KOGYO KABUSHIKI KAISHA, priority 1988, dated 1990).

The subject of data set [1] is nitrosoamine-induced pancreatic cancer. Description: in vivo hemorrhagic necrosis effect. More on the design: species or system hamsters; key to Hemorrhagic necrosis effect: four scales of G4, G3, G2 and G1; four scales of G4, G3, G2 and G1; four scales of G4, G3, G2 and G1; four scales of G4, G3, G2 and G1. The following applies: for photograph of a cancer mass (Fig. 2): 24 hours after administration, Cn-Ga-DP-diAsp, n = even numbers; for Hemorrhagic necrosis effect: intensity of hemorrhagic necrosis at 24 hours following i.v. administration, and pathological study. The procedure: Cancer bearing hamsters of Experiment 1 were i.v. administered the test substance C6-Ga-DP-diAsp (10) (10 mg/ml) which had been diluted with phosphate buffer at 25 mg/kg bodyweight and 12.5 mg/kg bodyweight respectively. The animals were exsanguinated and autopsied at 24 hours after administration, and observed.
The evaluation was based on the four scales of G4, G3, G2 and G1.

For data set [2] the test system is unchanged. Description: laser irradiation to the extirpated organ (excited fluorescent spectrum, N2-PLS measurement), tumor to tissue ratio. The class given is in vivo, Golden hamsters. The following applies: i.v. 25 mg/kg bodyweight, organs extirpated at 24 hours after administration. Put shortly:
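Male golden hamsters (~150 g, 5/group) bearing subcutaneous tumours, given EG-Ga-DP-diGly 25 mg/kg i.v. 14–21 days post-implant. Organs excised at 24 h, excited by N2-pulsed laser (337 nm); 600–900 nm peak referenced to NADH 470 nm. For Mn, Fe, Cu complexes, organic-solvent extracts measured by UV or HPLC.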

Data set [3] shares this test system. Kind of data set: in vivo irradiation therapy using Yag laser. More on the design: species or system hamsters. The following applies: i.v. 12.5 mg/kg bodyweight, Yag laser 1064 nm, 5 w, 10 sec x 4 at 24 hours after administration, autopsy 24 hours following irradiation. The procedure: Tumor bearing hamsters of Experiment 1 were i.v. administered the test materials C6-Ga-DP-diAsp (10) and C10 -Ga-DP-diAsp (16) (10 mg/ml) at 12.5 mg/kg bodyweight. At 24 hours after administration, the hair above the tumor site was shaved and irradiation with Yag laser commenced (1064 nm, 5 w, 10 sec x 4). At 24 hours following irradiation, the animals were exsanguinated and autopsied for observation.

Data set [4] shares this test system. Kind of data set: pathology of tumor and organs (hematoxylin-eosin sections). The class given is in vivo, hamsters. The following applies: treated as in Experiment 2, formalin fixed. The procedure:
Tumor bearing hamsters of Experiment 1 were treated similarly as in Experiment 2 except that they were administered C12-Mn-DP-diAsp (48) instead of C6-Ga-DP-diAsp (10). Organs including the tumor (the treated group and the control group) were fixed with formalin, embedded in paraffin, cut into sections, double stained with hematoxylin-eosin, and observed pathologically.
Figs. 4 and 5 show photographs of the tumor cell necrosis of the treated group. There were many cell necrosis images and necrotic layers which were not present in the non-cancerous organs and the control group.

The test system is the same in data set [5]. Kind of data set: in vivo cell growth inhibition effect (tumor size by slide calipers). More on the design: species or system hamsters. Particulars: i.v. 25 mg/kg bodyweight. As for the experimental part:
Tumor bearing hamsters of Experiment 1 were i.v. administered the test substance C10-Mn-DP-diAsp (37) (10 mg/ml) diluted by phosphate buffer at 25 mg/kg bodyweight. The tumor size was measured supracutaneously using slide calipers on an appropriate day following administration.

The mark [6] stands for this setting: i.v. 25 mg/kg and 12.5 mg/kg bodyweight, autopsy at 24 hours after administration.

The structures appear in SMILES notation.

Regarding `CCCCCCOC(C)C1=C(C)C2=Cc3c(C(C)OCCCCCC)c(C)c4[n]3[Ga][n]3c(c(C)c(CCC(=O)NC(CC(=O)O)C(=O)O)c3=CC3=NC(=C4)C(C)=C3CCC(=O)NC(CC(=O)O)C(=O)O)=CC1=N2` (stereo not shown) [(10) C6-Ga-DP-diAsp, 2,4-bis(1-hexyloxyethyl)-Ga-deuteroporphynyl diaspartic acid], in data set [1], the “photograph of a cancer mass (Fig. 2)” value is reported as “hemorrhagic necrosis” and the Hemorrhagic necrosis effect result is reported as “G4”. In addition, in data set [1] (setting [6]), the “changes of the organs such as the liver, lungs, kidneys excluding the tumor” value is reported as “showed no changes” and the “effect on the cancer mass” value is recorded as “developed hemorrhagic necrosis”. Moreover, in data set [2], the tumor/tissue cancer/ kidney was 6.86, the tumor/tissue cancer/ liver is listed as 5.33, the tumor/tissue cancer/ lung is on record as 5.33 and the tumor/tissue cancer/ serum is listed as 0.98. The “state of the cancer mass after Yag laser irradiation” value in data set [3] was “necrotic”.

As to `CCCCCCCCCCOC(C)C1=C(C)c2cc3[nH]c(cc4nc(cc5[nH]c(cc1n2)c(C)c5C(C)OCCCCCCCCCC)C(C)=C4CCC(=O)NC(CC(=O)O)C(=O)O)c(CCC(=O)NC(CC(=O)O)C(=O)O)c3C.[Ga]` (stereo not shown) [(16) C10-Ga-DP-diAsp, 2,4-bis(1-decyloxyethyl)-Ga-deuteroporphynyl diaspartic acid], in data set [1], the “photograph of a cancer mass (Fig. 2)” value is recorded as “hemorrhagic necrosis” and the Hemorrhagic necrosis effect entry is reported as “G2”. In addition, in data set [2], the tumor/tissue cancer/ kidney stood at 16.44, the tumor/tissue cancer/ liver came out at 11.54, the tumor/tissue cancer/ lung is 23.08 and the tumor/tissue cancer/ serum turned out to be 2.78. Further, in data set [3], the “state of the cancer mass after Yag laser irradiation” value is “necrotic”.

As for `CCCCCCCCCCCCOC(C)C1=C(C)C2=Cc3c(C(C)OCCCCCCCCCCCC)c(C)c4[n]3[Mn][n]3c(c(C)c(CCC(=O)NC(CC(=O)O)C(=O)O)c3=CC3=NC(=C4)C(C)=C3CCC(=O)NC(CC(=O)O)C(=O)O)=CC1=N2` (stereo not shown) [(48) C12-Mn-DP-diAsp, 2,4-bis(1-dodecyloxyethyl)-Mn-deuteroporphynyl diaspartic acid], the Hemorrhagic necrosis effect result in data set [1] is “G4”. The “pathological observation of the tumor (Fig. 4)” value in data set [4] is “necrotic tumor cells”. In addition, the “tumor growth compared to the control group (Fig. 6)” value in data set [5] was “notable tumor growth inhibitory effect”.
